# Experimental data published in ChEMBL document CHEMBL1127517 (J Med Chem, 1994).
# pKi: −log10 of the molar value.
# Legend:
# [1] = molecular target: T1, Sodium-dependent dopamine transporter (Rattus norvegicus, UniProt P23977); test: Inhibitory constant towards reuptake of [125I]-13 from dopamine transporter in rat striatal membranes; format: cell membranes, Membrane
# [2] = molecular target: T1, Sodium-dependent dopamine transporter; test: Inhibitory constant towards reuptake of [125I]-12 from dopamine transporter in rat striatal membranes; format: cell membranes, Membrane
# T1 sequence (P23977 whole entry): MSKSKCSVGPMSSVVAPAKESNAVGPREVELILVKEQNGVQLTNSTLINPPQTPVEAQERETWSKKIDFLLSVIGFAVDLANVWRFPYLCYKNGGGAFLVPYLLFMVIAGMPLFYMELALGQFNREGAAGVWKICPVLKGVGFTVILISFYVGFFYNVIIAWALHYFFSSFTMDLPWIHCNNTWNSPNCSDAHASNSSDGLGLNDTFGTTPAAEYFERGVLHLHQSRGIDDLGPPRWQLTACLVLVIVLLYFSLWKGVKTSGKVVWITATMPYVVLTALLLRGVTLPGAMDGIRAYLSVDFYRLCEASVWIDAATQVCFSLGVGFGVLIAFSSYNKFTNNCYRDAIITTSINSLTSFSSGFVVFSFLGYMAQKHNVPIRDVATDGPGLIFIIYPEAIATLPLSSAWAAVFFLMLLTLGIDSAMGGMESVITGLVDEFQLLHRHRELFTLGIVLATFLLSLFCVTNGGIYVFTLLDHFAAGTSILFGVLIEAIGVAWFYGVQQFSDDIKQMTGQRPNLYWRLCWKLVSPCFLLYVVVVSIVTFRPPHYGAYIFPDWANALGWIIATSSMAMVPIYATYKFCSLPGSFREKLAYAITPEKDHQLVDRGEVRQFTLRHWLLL
structure (smiles),measurement,setting,value
OC1(c2ccc(Cl)cc2)c2ccccc2C2=NCCN21 (configuration not stated) [MAZINDOL],pKi,[1],7.38
same,pKi,[2],7.49
